The values below come from paper PMC5080841 (Journal of medicinal chemistry, 2016).

In one test the target is HemO (Pseudomonas aeruginosa, UniProt O69002). Kind of test: STD NMR binding epitope. Particulars: relative to the strongest interacting proton.
The target in a further test is T1, P. aeruginosa HemO (Pseudomonas aeruginosa, UniProt O69002).
T1 sequence (O69002 1-198): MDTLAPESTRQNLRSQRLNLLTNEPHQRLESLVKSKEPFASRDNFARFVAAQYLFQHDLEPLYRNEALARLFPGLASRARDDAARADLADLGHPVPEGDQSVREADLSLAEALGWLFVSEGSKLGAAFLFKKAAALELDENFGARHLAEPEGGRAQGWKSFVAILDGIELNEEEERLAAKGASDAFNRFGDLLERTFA
Particulars: read-out: binding affinity for HemO; previous work; cited from earlier work.

Test [1] relates to Caenorhabditis elegans infection model. Particulars: previous work; cited from earlier work.
The test system of the next test is P. aeruginosa. Particulars: previous work; cited from earlier work.

Structures are written as SMILES.

Consider `Cl.NC(N)=N/N=C/c1cccc(OCc2ccccc2)c1` [Compound 24, (E)-2-(3-(Benzyloxy)benzylidene)hydrazinecarboximidamide Hydrochloride], for which, on HemO, the “relative STD interaction of the benzylimine proton” value is listed as 100% and the “relative STD interaction of the para-position proton” value is 82%.
On to `CN(C)c1ccc(/C=N/NC(=N)N)cc1.Cl` [Compound 1, (E)-2-(4-(Dimethylamino)benzylidene)hydrazine-carboximidamide Hydrochloride], for which the Kd on P. aeruginosa HemO is 31.2 µM. Moreover, the “curing activity in Caenorhabditis elegans infection model” value in test [1] is reported as “exhibited curing activity”. In addition, the “MIC50 against P. aeruginosa” value with P. aeruginosa is reported as 250 µg/mL.
